Tests used:
Assay type in all cases: in vivo
[1] = test system: Surinam grass (Brachiaria decumbens); test: Test B pre/postemergence; conditions: for Surinam Grass plant response rating: scale 0 to 100 (0 no effect, 100 complete control)
How it was run: (§1)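 Scores reflect visual comparison with untreated controls, where 0 means no effect and 100 complete control. Plants stayed 13 to 15 days in the greenhouse after pre- or postemergence treatment with compounds carried in a non-phytotoxic solvent and surfactant.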

[2] = test system: barnyardgrass (Echinochloa crus-galli); test: Test B pre/postemergence
How it was run: as §1

[3] = test system: cocklebur (Xanthium strumarium); test: Test B pre/postemergence
How it was run: as §1

[4] = test system: corn (Zea mays); test: Test B pre/postemergence
How it was run: as §1

[5] = test system: crabgrass (Digitaria sanguinalis); test: Test B pre/postemergence
How it was run: as §1

[6] = test system: giant foxtail (Setaria faberii); test: Test B pre/postemergence
How it was run: as §1

[7] = test system: lambsquarters (Chenopodium album); test: Test B pre/postemergence
How it was run: as §1

[8] = test system: morningglory (Ipomoea coccinea); test: Test B pre/postemergence
How it was run: as §1

[9] = test system: pigweed (Amaranthus retroflexus); test: Test B pre/postemergence
How it was run: as §1

[10] = test system: velvetleaf (Abutilon theophrasti); test: Test B pre/postemergence
How it was run: as §1

[11] = test system: wheat (Triticum aestivum); test: Test B pre/postemergence
How it was run: as §1

[12] = test system: blackgrass (Alopecurus myosuroides); test: Test B postemergence
How it was run: as §1

[13] = test system: wild oat (Avena fatua); test: Test B postemergence
How it was run: as §1

[14] = test system: barnyardgrass (Echinochloa crus-galli); test: Test B flooded paddy test; conditions: Flood, 1000 g ai/ha; scale 0 (no effect) to 100 (complete control)
How it was run: (§2)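 Rice, umbrella sedge, duck salad and barnyardgrass grown to 2-leaf stage under flooded paddy conditions and treated with formulated test chemicals. Kept in greenhouse 13–15 days, then visually rated against untreated controls on a 0–100 scale (0 no effect, 100 complete control).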

[15] = test system: duck salad (Heteranthera limosa); test: Test B flooded paddy test; conditions: Flood, 1000 g ai/ha; scale 0 to 100
How it was run: as §2

[16] = test system: rice (Oryza sativa); test: Test B flooded paddy test; conditions: Flood, 1000 g ai/ha; scale 0 to 100
How it was run: as §2

[17] = test system: umbrella sedge (Cyperus difformis); test: Test B flooded paddy test; conditions: Flood, 1000 g ai/ha; scale 0 to 100
How it was run: as §2

[18] = Postemergence, 500 g ai/ha, scale 0 to 100
[19] = Postemergence, 125 g ai/ha, scale 0 to 100 (0 no effect, 100 complete control)
[20] = Preemergence, 125 g ai/ha, scale 0 to 100 (0 no effect, 100 complete control)
[21] = Preemergence, 500 g ai/ha, scale 0 to 100 (0 no effect, 100 complete control)
[22] = 125 g ai/ha, scale 0 to 100 (0 no effect, 100 complete control)

In the case of `CCOC(=O)c1nc(-c2ccc(Cl)cc2)nc(N)c1Br` [Compound 37], the “Surinam Grass plant response rating” value ([1]; Postemergence, 125 g ai/ha) is reported as 20, the “Plant response rating, Surinam Grass” value [1, 18] is reported as 70 and the “Surinam Grass plant response rating” value ([1]; Preemergence, 500 g ai/ha) is reported as 40. The “Barnyardgrass plant response rating” value [2, 19] was 0, the “Plant response rating, Barnyardgrass” value [2, 18] was 90 and the “Plant response rating, Barnyardgrass” value [2, 20] was 10. The “Barnyardgrass plant response rating” value [2, 21] was 40, the “Cocklebur plant response rating” value [3, 19] was 100 and the “Plant response rating, Cocklebur” value [3, 18] was 100. For the same compound, the “Plant response rating, Cocklebur” value [3, 20] was 20, the “Cocklebur plant response rating” value [3, 21] was 80 and the “Corn plant response rating” value [4, 19] was 0. The “Plant response rating, Corn” value [4, 18] was 70, the “Plant response rating, Corn” value [4, 20] was 0 and the “Corn plant response rating” value [4, 21] was 10. The “Crabgrass plant response rating” value [5, 19] was 60, the “Plant response rating, Crabgrass” value [5, 18] was 80 and the “Plant response rating, Crabgrass” value [5, 20] was 50. The “Crabgrass plant response rating” value [5, 21] was 90, the “Foxtail, Giant plant response rating” value [6, 19] was 10 and the “Plant response rating, Foxtail, Giant” value [6, 18] was 60. The “Plant response rating, Foxtail, Giant” value [6, 20] was 10, the “Foxtail, Giant plant response rating” value [6, 21] was 60 and the “Lambsquarters plant response rating” value [7, 19] was 100. For the same compound, the “Plant response rating, Lambsquarters” value [7, 18] was 100, the “Plant response rating, Lambsquarters” value [7, 20] was 100 and the “Lambsquarters plant response rating” value [7, 21] was 100. The “Morningglory plant response rating” value [8, 19] was 90, the “Plant response rating, Morningglory” value [8, 18] was 100 and the “Plant response rating, Morningglory” value [8, 20] was 10. The “Morningglory plant response rating” value [8, 21] was 50, the “Pigweed plant response rating” value [9, 19] was 100 and the “Plant response rating, Pigweed” value [9, 18] was 100. For the same compound, the “Plant response rating, Pigweed” value [9, 20] was 100, the “Pigweed plant response rating” value [9, 21] was 100 and the “Velvetleaf plant response rating” value [10, 19] was 80. The “Plant response rating, Velvetleaf” value [10, 18] was 100, the “Plant response rating, Velvetleaf” value [10, 20] was 40 and the “Velvetleaf plant response rating” value [10, 21] was 80. The “Wheat plant response rating” value [11, 19] was 0, the “Plant response rating, Wheat” value [11, 18] was 60 and the “Plant response rating, Wheat” value [11, 20] was 30. For the same compound, the “Plant response rating, Wheat” value [11, 21] was 60, the “Blackgrass plant response rating” value [12, 22] was 40 and the “Plant response rating, Blackgrass” value ([12]; 500 g ai/ha, scale 0 to 100) was 60. The “Oat, Wild plant response rating” value [13, 22] was 0, the “Plant response rating, Oat, Wild” value ([13]; 500 g ai/ha, scale 0 to 100) was 0 and the “Plant response rating, Barnyardgrass” value [14] was 20. The “Plant response rating, Ducksalad” value [15] was 100, the “Plant response rating, Rice” value [16] was 0 and the “Plant response rating, Sedge, Umbrella” value [17] was 90.

From patent US8802597B2, “Herbicidal pyrimidines” (E I du Pont de Nemours and Company, priority 2003, dated 2014)
